Measurements reported in US10385065B2, “Antibacterial compounds” (priority 2014, dated 2019).
≈ marks a conversion by molar mass, not a printed value. Like-named read-outs stand apart in the source and are kept apart here.

Key:
[1] = test system: S. epidermidis NRS101 MRSE; assay: MIC, S. epidermidis NRS101; format: cell-based; details: Staphylococcus epidermidis; Table 2; read-out: MIC S. epidermidis NRS101 MRSE AMG, ERY resistant
[2] = test system: Mycobacterium smegmatis ATCC 19420; assay: MIC, M. smegmatis ATCC 19420; format: cell-based; details: Mycolicibacterium smegmatis, ATCC19420; Table 4, 72 h incubation
[3] = test system: Streptococcus pneumoniae ATCC BAA-255; assay: MIC, S. pneumoniae ATCC BAA-255; format: cell-based; details: ATCCBAA255, Table 2
S. aureus NRS70 MRSA = assay: MIC, S. aureus NRS70; format: cell-based; details: Staphylococcus aureus; Table 2
[4] = test system: Neisseria meningitidis ATCC 13090; assay: MIC, N. meningitidis ATCC 13090; format: cell-based; details: ATCC13090, Table 4, 24 h incubation
S. aureus NRS108 = assay: MIC, S. aureus NRS108; format: cell-based; details: Staphylococcus aureus, MRSA / NRS 108, read-out: MIC S. aureus NRS108
[5] = test system: Mycobacterium tuberculosis H37Rv; assay: MIC, M. tuberculosis H37Rv; format: cell-based; details: virulent tuberculosis-causative strain
[6] = test system: S. aureus NRS482 MRSA FQ resistant; assay: MIC, S. aureus NRS482; format: cell-based; details: Staphylococcus aureus; Table 2
[7] = test system: S. aureus SACPX1-SP28 (MSSA - fluoroquinolone resistant); assay: MIC, S. aureus SACPX1-SP28; format: cell-based; details: Staphylococcus aureus, read-out: MIC S. aureus SACPX1-SP28
[8] = test system: S. aureus SACPX1-SP25 MSSA - FQ resistant; assay: microbe, parasite or virus in culture; format: cell-based; details: Staphylococcus aureus, ATCC 29213 / MSSA; Table 2; read-out: MIC S. aureus SACPX1-SP25 MSSA - FQ resistant (isogenic mutant of ATCC 29213)
S. aureus VRS8 = assay: MIC, S. aureus VRS8; format: cell-based; details: Staphylococcus aureus, MRSA, read-out: MIC S. aureus VRS8
[9] = test system: Legionella pneumophila ATCC 33152; assay: microbe, parasite or virus in culture; format: cell-based; details: ATCC33152, 48 h, read-out: MIC Legionella pneumophila ATCC 33152
[10] = test system: S. aureus NRS127 MRSA LZD resistant; assay: MIC, S. aureus NRS127; format: cell-based; details: Staphylococcus aureus; Table 2
[11] = test system: Neisseria gonorrhoeae ATCC 49226; assay: MIC, N. gonorrhoeae ATCC 49226; format: cell-based; details: ATCC49226, Table 4, 24 h incubation
[12] = test system: S. aureus NRS107 MUP resistant; assay: MIC, S. aureus NRS107; format: cell-based; details: Staphylococcus aureus, Table 2
S. aureus NRS1 MRSA = assay: MIC, S. aureus NRS1; format: cell-based; details: Staphylococcus aureus; Table 2; read-out: MIC S. aureus NRS1 MRSA AMG & TET resistant
[13] = test system: all strains of S. aureus tested; assay: Antibacterial susceptibility, all S. aureus strains tested; format: cell-based, Staphylococcus aureus; details: including strains resistant to fluoroquinolone and other antibiotics
[14] = test system: S. aureus (MRSA) ATCC 43300; assay: MIC, S. aureus ATCC 43300; format: cell-based; details: Staphylococcus aureus; Table 2; read-out: MIC S. aureus (MRSA) ATCC 43300 Heterogeneous MRSA strain
[15] = test system: S. aureus NRS384 (MRSA - fluoroquinolone susceptible); assay: MIC, S. aureus NRS384; format: cell-based; details: Staphylococcus aureus, read-out: MIC S. aureus NRS384
[16] = test system: S. aureus NRS106 (fluoroquinolone susceptible MSSA); assay: MIC, S. aureus NRS106; format: cell-based; details: Staphylococcus aureus
[17] = test system: human hepatic cell line (HepG2 ATCC HB-8065); assay: Human cell viability assay (CellTiter-Glo), HepG2; format: cell-based; details: HepG2, 24 h incubation, tested over 1-128 μg/mL, read-out: IC50 values against HepG2
Method in brief: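 HepG2 seeded at 20,000 cells/well, then after 24 h given two-fold serial dilutions (1-128 μg/mL, 1% DMSO) in DMEM with 0.001% FBS and 0.3% albumin. After 24 h at 37 °C, ATP luminescence (CellTiter-Glo) read; IC50 is the concentration halving viability.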

[18] = test system: Moraxella catarrhalis ATCC 25240; assay: MIC, M. catarrhalis ATCC 25240; format: cell-based; details: ATCC25240, Table 4
[19] = test system: Enterococcus faecium ATCC 19434; assay: MIC, E. faecium ATCC 19434; format: cell-based; details: ATCC19434, Table 2
[20] = test system: Staphylococcus aureus ATCC 29213; assay: MIC, broth microdilution, S. aureus ATCC 29213; format: cell-based
S. aureus NRS74 = assay: MIC, S. aureus NRS74; format: cell-based; details: Staphylococcus aureus, MRSA / NRS 74, read-out: MIC S. aureus NRS74
[21] = test system: Escherichia coli ATCC 25922; assay: MIC, broth microdilution, E. coli ATCC 25922; format: cell-based; details: ATCC25922, Table 1, wild type strain
S. aureus NRS100 MRSA = assay: MIC, S. aureus NRS100; format: cell-based; details: Staphylococcus aureus; Table 2
[22] = test system: Haemophilus influenzae ATCC 49247; assay: MIC, H. influenzae ATCC 49247; format: cell-based; details: ATCC49247, Table 4
[23] = test system: S. aureus VRS1 MRSA VAN resistant; assay: MIC, S. aureus VRS1; format: cell-based; details: Staphylococcus aureus, Table 2
S. aureus NRS271 = assay: MIC, S. aureus NRS271; format: cell-based; details: Staphylococcus aureus, MRSA / NRS 271, read-out: MIC S. aureus NRS271

## Cc1c(-c2cc(F)c(N)cc2F)ccc2c3ocnc3c(=O)n(C3CC3)c12 [Compound 1, 7-(4-amino-2,5-difluoro-phenyl)-5-cyclopropyl-6-methyl-oxazolo[4,5-c]quinolin-4-one]
[1]
  MIC: < 1 µg/mL
[2]
  MIC: < 1 µg/mL
[3]
  MIC: 1 to 10 µg/mL (≈ 2.72 to 27.2 µM)
S. aureus NRS70 MRSA
  MIC: < 1 µg/mL
[4]
  MIC: < 1 µg/mL
S. aureus NRS108
  MIC: < 1 µg/mL
[5]
  MIC: < 8 µg/mL
[6]
  MIC: < 1 µg/mL
[7]
  MIC: < 1 µg/mL
[8]
  MIC: < 1 µg/mL
S. aureus VRS8
  MIC: < 1 µg/mL
[9]
  MIC: < 1 µg/mL
[10]
  MIC: < 1 µg/mL
[11]
  MIC: < 1 µg/mL
[12]
  MIC: < 1 µg/mL
S. aureus NRS1 MRSA
  MIC: < 1 µg/mL
[13]
  activity against all strains of S. aureus tested: excellent activity
[14]
  MIC: < 1 µg/mL
[15]
  MIC: < 1 µg/mL
[16]
  MIC: < 1 µg/mL
[17]
  IC50: > 100 µg/mL
[18]
  MIC: < 1 µg/mL
[19]
  MIC: > 100 µg/mL
[20]; ATCC29213, Table 1, wild type strain, read-out: MIC S. aureus ATCC 29213
  MIC: < 1 µg/mL
[20]; ATCC 29213 / MSSA, Table 2, read-out: MIC S. aureus (MSSA) ATCC 29213 CLSI control strain
  MIC: < 1 µg/mL
S. aureus NRS74
  MIC: < 1 µg/mL
[21]
  MIC: > 100 µg/mL
S. aureus NRS100 MRSA
  MIC: < 1 µg/mL
[22]
  MIC: < 1 µg/mL
[23]
  MIC: < 1 µg/mL
S. aureus NRS271
  MIC: < 1 µg/mL
